Laboratory results from ChEMBL document CHEMBL1148993, “UV-mediated genotoxicity of furanoquinoline and of certain tryptophan-derived alkaloids” (J Nat Prod, 1983).
Where a name gives a salt, the structure may show the parent alone.

Key:
[1] = (§1) Genotoxicity in CHO cells assessed as mitotic inhibition at 0.62 ppm after 60 mins in dark followed by 5 W/m'2 UV irradiation for 30 mins; assay type: toxicity, cell-based, Cricetulus griseus; details: chinese hamster, CHO cells; read-out: Activity
[2] = tested on: CHO; test: Genotoxicity in CHO cells assessed as chromosomal aberrations at 0.07 ppm after 60 mins in dark followed by 5 W/m'2 UV irradiation for 30 mins; assay type: toxicity, cell-based, Cricetulus griseus; details: chinese hamster, 0.5 h
[3] = tested on: CHO; test: as §1; assay type: toxicity, cell-based, Cricetulus griseus; details: chinese hamster, cho, 0.5 h
[4] = tested on: CHO; test: Genotoxicity in CHO cells assessed as mitotic inhibition at 0.31 ppm after 60 mins in dark followed by 5 W/m'2 UV irradiation for 30 mins; assay type: toxicity, cell-based, Cricetulus griseus; details: chinese hamster, 0.5 h
[5] = tested on: Enterococcus faecalis; test: Phototoxicity against Streptococcus faecalis at 10 ug/disk in dark; assay type: functional; details: light or radiation study, read-out: IZ
[6] = tested on: CHO; test: Genotoxicity in CHO cells assessed as chromosomal aberrations at 62.5 ppm after 60 mins in dark followed by 5 W/m'2 UV irradiation for 30 mins; assay type: toxicity, cell-based, Cricetulus griseus; details: chinese hamster, 0.5 h
[7] = tested on: CHO; test: Genotoxicity in CHO cells assessed as chromosomal aberrations at 7.8 ppm after 60 mins in dark followed by 5 W/m'2 UV irradiation for 30 mins; assay type: toxicity, cell-based, Cricetulus griseus; details: chinese hamster, 0.5 h
[8] = tested on: CHO; test: Genotoxicity in CHO cells assessed as chromosomal aberrations at 31.2 ppm after 60 mins in dark followed by 5 W/m'2 UV irradiation for 30 mins; assay type: toxicity, cell-based, Cricetulus griseus; details: chinese hamster, 0.5 h
[9] = tested on: Pseudomonas fluorescens; test: Phototoxicity against Pseudomonas fluorescens at 10 ug/disk after irradiation with W/m'2 UV light; assay type: functional; details: light or radiation study, read-out: IZ
[10] = tested on: Pseudomonas aeruginosa; test: Phototoxicity against Pseudomonas aeruginosa at 10 ug/disk after irradiation with W/m'2 UV light; assay type: functional; details: light or radiation study, read-out: IZ
[11] = tested on: CHO; test: Genotoxicity in CHO cells assessed as chromosomal aberrations at 125 ppm after 60 mins in dark followed by 5 W/m'2 UV irradiation for 30 mins; assay type: toxicity, cell-based, Cricetulus griseus; details: chinese hamster, 0.5 h
[12] = tested on: Staphylococcus aureus; test: Phototoxicity against Staphylococcus aureus at 10 ug/disk in dark; assay type: functional; details: light or radiation study, read-out: IZ
[13] = tested on: CHO; test: Genotoxicity in CHO cells assessed as chromosomal aberrations at 15.6 ppm after 60 mins in dark followed by 5 W/m'2 UV irradiation for 30 mins; assay type: toxicity, cell-based, Cricetulus griseus; details: chinese hamster, 0.5 h
[14] = tested on: Candida albicans; test: Phototoxicity against Candida albicans at 10 ug/disk after irradiation with W/m'2 UV light; assay type: functional; details: light or radiation study, read-out: IZ
[15] = tested on: Staphylococcus aureus; test: Phototoxicity against Staphylococcus aureus at 10 ug/disk after irradiation with W/m'2 UV light; assay type: functional; details: light or radiation study, read-out: IZ
[16] = tested on: Escherichia coli; test: Phototoxicity against Escherichia coli at 10 ug/disk after irradiation with W/m'2 UV light; assay type: functional; details: light or radiation study, read-out: IZ
[17] = tested on: Candida albicans; test: Phototoxicity against Candida albicans at 10 ug/disk in dark; assay type: functional; details: light or radiation study, read-out: IZ
[18] = tested on: Bacillus subtilis; test: Phototoxicity against Bacillus subtilis at 10 ug/disk in dark; assay type: functional; details: light or radiation study, read-out: IZ
[19] = tested on: Pseudomonas fluorescens; test: Phototoxicity against Pseudomonas fluorescens at 10 ug/disk in dark; assay type: functional; details: light or radiation study, read-out: IZ
[20] = tested on: CHO; test: Genotoxicity in CHO cells assessed as mitotic inhibition at 3.9 ppm after 60 mins in dark followed by 5 W/m'2 UV irradiation for 30 mins; assay type: toxicity, cell-based, Cricetulus griseus; details: chinese hamster, 0.5 h
[21] = tested on: Enterococcus faecalis; test: Phototoxicity against Streptococcus faecalis at 10 ug/disk after irradiation with W/m'2 UV light; assay type: functional; details: light or radiation study, read-out: IZ
[22] = tested on: CHO; test: Genotoxicity in CHO cells assessed as chromosomal aberrations at 1.9 ppm after 60 mins in dark followed by 5 W/m'2 UV irradiation for 30 mins; assay type: toxicity, cell-based, Cricetulus griseus; details: chinese hamster, 0.5 h
[23] = tested on: CHO; test: Genotoxicity in CHO cells assessed as chromosomal aberrations at 125 ppm after 90 mins in dark; assay type: toxicity, cell-based, Cricetulus griseus; details: chinese hamster, 1.5 h
[24] = tested on: Bacillus subtilis; test: Phototoxicity against Bacillus subtilis at 10 ug/disk after irradiation with W/m'2 UV light; assay type: functional; details: light or radiation study, read-out: IZ
[25] = tested on: Escherichia coli; test: Phototoxicity against Escherichia coli at 10 ug/disk in dark; assay type: functional; details: light or radiation study, read-out: IZ
[26] = tested on: Pseudomonas aeruginosa; test: Phototoxicity against Pseudomonas aeruginosa at 10 ug/disk in dark; assay type: functional; details: light or radiation study, read-out: IZ
[27] = tested on: Saccharomyces cerevisiae; test: Phototoxicity against Saccharomyces cerevisiae at 10 ug/disk in dark; assay type: functional; details: light or radiation study, read-out: IZ
[28] = tested on: Saccharomyces cerevisiae; test: Phototoxicity against Saccharomyces cerevisiae at 10 ug/disk after irradiation with W/m'2 UV light; assay type: functional; details: light or radiation study, read-out: IZ
[29] = tested on: CHO; test: Genotoxicity in CHO cells assessed as mitotic inhibition at 6.3 ppm after 60 mins in dark followed by 5 W/m'2 UV irradiation for 30 mins; assay type: toxicity, cell-based, Cricetulus griseus; details: chinese hamster, 0.5 h
[30] = tested on: CHO; test: Phototoxicity against CHO cells assessed as mitotic inhibition at 12 ppm after UV irradiation; assay type: cell-based, Cricetulus griseus; details: chinese hamster
[31] = tested on: CHO; test: Genotoxicity in CHO cells assessed as chromosomal aberrations at 50 ppm after 60 mins in dark followed by 5 W/m'2 UV irradiation for 30 mins; assay type: toxicity, cell-based, Cricetulus griseus; details: chinese hamster
[32] = tested on: CHO; test: Genotoxicity in CHO cells assessed as chromosomal aberrations at 100 ppm after 90 mins in dark; assay type: toxicity, cell-based, Cricetulus griseus; details: chinese hamster, 1.5 h
[33] = tested on: CHO; test: Genotoxicity in CHO cells assessed as chromosomal aberrations at 100 ppm after 60 mins in dark followed by 5 W/m'2 UV irradiation for 30 mins; assay type: toxicity, cell-based, Cricetulus griseus; details: chinese hamster, 0.5 h
[34] = tested on: CHO; test: Genotoxicity in CHO cells assessed as chromosomal aberrations at 12.5 ppm after 60 mins in dark followed by 5 W/m'2 UV irradiation for 30 mins; assay type: toxicity, cell-based, Cricetulus griseus; details: chinese hamster, 0.5 h
[35] = tested on: CHO; test: Genotoxicity in CHO cells assessed as chromosomal aberrations at 25 ppm after 60 mins in dark followed by 5 W/m'2 UV irradiation for 30 mins; assay type: toxicity, cell-based, Cricetulus griseus; details: chinese hamster
[36] = tested on: CHO; test: Phototoxicity against CHO cells at 25 ppm; assay type: cell-based, Cricetulus griseus; details: chinese hamster
[37] = tested on: CHO; test: Genotoxicity against CHO cells after UV irradiation; assay type: toxicity, cell-based, Cricetulus griseus; details: chinese hamster
[38] = tested on: CHO; test: Genotoxicity against CHO cells; assay type: toxicity, cell-based, Cricetulus griseus; details: chinese hamster

Cc1nccc2c1[nH]c1ccccc12 [HARMANE HYDROCHLORIDE]
inhibition at 0.5 h, 0.62 ppm [1]: 0%

COc1ccc2[nH]c3c(c2c1)CCN=C3C
Activity [2]: 0% | Activity [3]: Toxic | Activity [4]: Active

O=c1ccc2nccc3c4ccccc4n1c23 [CANTHIN-6-ONE]
zone of inhibition at 10 µg/disc [5]: 0 mm | Activity [6]: Toxic | Activity [7]: Toxic | Activity [8]: Toxic | zone of inhibition at 10 µg/disc [9]: 0 mm | zone of inhibition at 10 µg/disc [10]: 0 mm | Activity [11]: Toxic | zone of inhibition at 10 µg/disc [12]: 0 mm | Activity [13]: Toxic | zone of inhibition at 10 µg/disc [14]: 13 mm | zone of inhibition at 10 µg/disc [15]: 10 mm | zone of inhibition at 10 µg/disc [16]: 7 mm | zone of inhibition at 10 µg/disc [17]: 9 mm | zone of inhibition at 10 µg/disc [18]: 16 mm | zone of inhibition at 10 µg/disc [19]: 0 mm | Activity [20]: Active | zone of inhibition at 10 µg/disc [21]: 0 mm | Activity [22]: 22.2% | Activity [23]: 0% | zone of inhibition at 10 µg/disc [24]: 8.6 mm | zone of inhibition at 10 µg/disc [25]: 0 mm | zone of inhibition at 10 µg/disc [26]: 0 mm | zone of inhibition at 10 µg/disc [27]: 9 mm | zone of inhibition at 10 µg/disc [28]: 13 mm

C=C[C@H]1C[N@@]2CC[C@H]1C[C@H]2[C@H](O)c1ccnc2ccc(OC)cc12 [QUININE]
Activity [29]: Active | Activity [30]: Active | Activity [31]: Toxic | Activity [32]: 0% | Activity [33]: Toxic | Activity [34]: Toxic | Activity [35]: Toxic | Activity [36]: Active

CN1[C@@H]2CC[C@H]1C[C@@H](OC(=O)C(CO)c1ccccc1)C2 (some centres undefined) [ATROPINE]
Activity [37]: Not Active | Activity [38]: Not Active

c1ccc2c(c1)[nH]c1cnccc12 [NORHARMANE]
inhibition at 0.5 h, 0.62 ppm [1]: 0%
